From the kinase profiling compilation of Christmann-Franck et al. (2016)

Experiments:
Test in all cases: KINOMEscan competition binding
Conditions in all cases: compound 10.0 µM
DAPK3 (human) = DAPK3 (human) (UniProt O43293)
CIT (human) = CIT (human) (UniProt O14578)
PLK3 (human) = PLK3 (human) (UniProt Q9H4B4)
PTK2B (human) = PTK2B (human) (UniProt Q14289)
MYLK (human) = MYLK (human) (UniProt Q15746)
TNK1 (human) = TNK1 (human) (UniProt Q13470)
TLK1 (human) = TLK1 (human) (UniProt Q9UKI8)
CaMK1 (human) = CaMK1 (human) (UniProt Q14012)
[1] = system: FLT3 (human), P36888 [N841I]
WEE2 (human) = WEE2 (human) (UniProt P0C1S8)
AURKC (human) = AURKC (human) (UniProt Q9UQB9)
CAMK1G (human) = CAMK1G (human) (UniProt Q96NX5)
PDPK1 (human) = PDPK1 (human) (UniProt O15530)
TNIK (human) = TNIK (human) (UniProt Q9UKE5)
BRSK2 (human) = BRSK2 (human) (UniProt Q8IWQ3)
CDK14 (human) = CDK14 (human) (UniProt O94921)
PTK6 (human) = PTK6 (human) (UniProt Q13882)
NUAK2 (human) = NUAK2 (human) (UniProt Q9H093)
MELK (human) = MELK (human) (UniProt Q14680)
ANKK1 (human) = ANKK1 (human) (UniProt Q8NFD2)
NEK5 (human) = NEK5 (human) (UniProt Q6P3R8)
CAMK4 (human) = CAMK4 (human) (UniProt Q16566)
TSSK1B (human) = TSSK1B (human) (UniProt Q9BXA7)
MAP3K4 (human) = MAP3K4 (human) (UniProt Q9Y6R4)
EPHA7 (human) = EPHA7 (human) (UniProt Q15375)
[2] = system: EIF2AK4 KD2 (human), Q9P2K8 [S808G]
PKN1 (human) = PKN1 (human) (UniProt Q16512)
ABL2 (human) = ABL2 (human) (UniProt P42684)
PIP4K2B (human) = PIP4K2B (human) (UniProt P78356)
STK35 (human) = STK35 (human) (UniProt Q8TDR2)
RIOK1 (human) = RIOK1 (human) (UniProt Q9BRS2)
MAP3K3 (human) = MAP3K3 (human) (UniProt Q99759)
TNNI3K (human) = TNNI3K (human) (UniProt Q59H18)
PRKCD (human) = PRKCD (human) (UniProt Q05655)
CSNK1E (human) = CSNK1E (human) (UniProt P49674)
MAPK11 (human) = MAPK11 (human) (UniProt Q15759)
MAP4K5 (human) = MAP4K5 (human) (UniProt Q9Y4K4)
BLK (human) = BLK (human) (UniProt P51451)
NTRK1 (human) = NTRK1 (human) (UniProt P04629)
CSNK1G3 (human) = CSNK1G3 (human) (UniProt Q9Y6M4)

Chain of PRKCD (human) (Q05655 whole entry, looked up): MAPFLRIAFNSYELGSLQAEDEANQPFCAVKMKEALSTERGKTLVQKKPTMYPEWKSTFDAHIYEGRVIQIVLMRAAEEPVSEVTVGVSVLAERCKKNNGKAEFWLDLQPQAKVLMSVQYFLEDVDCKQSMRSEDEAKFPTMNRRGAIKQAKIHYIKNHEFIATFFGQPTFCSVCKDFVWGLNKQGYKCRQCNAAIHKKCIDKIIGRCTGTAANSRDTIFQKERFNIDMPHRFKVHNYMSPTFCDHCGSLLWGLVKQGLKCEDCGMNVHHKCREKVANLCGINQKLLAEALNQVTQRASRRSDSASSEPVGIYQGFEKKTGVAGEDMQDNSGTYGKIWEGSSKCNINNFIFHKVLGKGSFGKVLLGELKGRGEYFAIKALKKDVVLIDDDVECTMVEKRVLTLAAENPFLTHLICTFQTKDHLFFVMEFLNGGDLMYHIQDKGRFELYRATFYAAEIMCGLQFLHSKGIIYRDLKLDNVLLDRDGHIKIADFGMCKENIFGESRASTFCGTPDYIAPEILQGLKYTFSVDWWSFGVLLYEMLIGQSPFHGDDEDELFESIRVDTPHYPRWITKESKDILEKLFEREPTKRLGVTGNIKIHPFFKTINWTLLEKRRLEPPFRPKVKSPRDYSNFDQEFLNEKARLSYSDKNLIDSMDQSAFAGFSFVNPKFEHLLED
Chain of TNIK (human) (Q9UKE5 whole entry, looked up): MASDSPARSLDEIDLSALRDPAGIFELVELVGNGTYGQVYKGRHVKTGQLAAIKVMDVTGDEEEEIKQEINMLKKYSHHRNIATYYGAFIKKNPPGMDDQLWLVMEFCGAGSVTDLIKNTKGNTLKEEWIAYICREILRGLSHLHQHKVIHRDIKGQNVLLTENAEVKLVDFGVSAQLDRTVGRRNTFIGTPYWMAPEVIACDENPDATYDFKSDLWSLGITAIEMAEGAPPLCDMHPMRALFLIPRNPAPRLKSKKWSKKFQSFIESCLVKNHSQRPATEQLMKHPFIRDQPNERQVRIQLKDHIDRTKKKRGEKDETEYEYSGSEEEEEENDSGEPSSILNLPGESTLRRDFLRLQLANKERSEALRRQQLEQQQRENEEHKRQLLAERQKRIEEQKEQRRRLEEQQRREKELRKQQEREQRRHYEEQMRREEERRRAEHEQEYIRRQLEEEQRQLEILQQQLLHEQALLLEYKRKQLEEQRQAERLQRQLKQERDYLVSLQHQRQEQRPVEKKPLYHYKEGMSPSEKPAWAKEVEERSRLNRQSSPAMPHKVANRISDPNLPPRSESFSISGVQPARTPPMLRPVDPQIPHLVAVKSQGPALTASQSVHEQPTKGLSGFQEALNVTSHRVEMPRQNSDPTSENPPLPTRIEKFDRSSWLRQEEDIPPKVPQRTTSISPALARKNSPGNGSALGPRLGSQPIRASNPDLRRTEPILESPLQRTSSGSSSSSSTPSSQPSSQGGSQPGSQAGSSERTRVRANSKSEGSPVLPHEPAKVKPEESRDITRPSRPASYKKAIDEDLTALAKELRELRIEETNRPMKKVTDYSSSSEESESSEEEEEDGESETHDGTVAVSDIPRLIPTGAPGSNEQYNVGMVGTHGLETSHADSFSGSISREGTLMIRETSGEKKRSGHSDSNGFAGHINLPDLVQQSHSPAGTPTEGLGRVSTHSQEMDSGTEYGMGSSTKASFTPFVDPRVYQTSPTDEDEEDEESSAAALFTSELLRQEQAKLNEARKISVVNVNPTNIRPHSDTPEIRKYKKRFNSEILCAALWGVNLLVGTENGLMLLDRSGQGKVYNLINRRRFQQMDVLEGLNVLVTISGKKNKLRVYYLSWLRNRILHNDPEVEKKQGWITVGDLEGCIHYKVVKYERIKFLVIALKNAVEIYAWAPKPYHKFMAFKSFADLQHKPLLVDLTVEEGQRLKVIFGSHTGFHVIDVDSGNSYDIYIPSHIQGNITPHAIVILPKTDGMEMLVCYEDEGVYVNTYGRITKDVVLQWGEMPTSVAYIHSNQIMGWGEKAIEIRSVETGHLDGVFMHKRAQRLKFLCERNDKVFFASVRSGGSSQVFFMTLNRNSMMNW
Chain of NUAK2 (human) (Q9H093 whole entry, looked up): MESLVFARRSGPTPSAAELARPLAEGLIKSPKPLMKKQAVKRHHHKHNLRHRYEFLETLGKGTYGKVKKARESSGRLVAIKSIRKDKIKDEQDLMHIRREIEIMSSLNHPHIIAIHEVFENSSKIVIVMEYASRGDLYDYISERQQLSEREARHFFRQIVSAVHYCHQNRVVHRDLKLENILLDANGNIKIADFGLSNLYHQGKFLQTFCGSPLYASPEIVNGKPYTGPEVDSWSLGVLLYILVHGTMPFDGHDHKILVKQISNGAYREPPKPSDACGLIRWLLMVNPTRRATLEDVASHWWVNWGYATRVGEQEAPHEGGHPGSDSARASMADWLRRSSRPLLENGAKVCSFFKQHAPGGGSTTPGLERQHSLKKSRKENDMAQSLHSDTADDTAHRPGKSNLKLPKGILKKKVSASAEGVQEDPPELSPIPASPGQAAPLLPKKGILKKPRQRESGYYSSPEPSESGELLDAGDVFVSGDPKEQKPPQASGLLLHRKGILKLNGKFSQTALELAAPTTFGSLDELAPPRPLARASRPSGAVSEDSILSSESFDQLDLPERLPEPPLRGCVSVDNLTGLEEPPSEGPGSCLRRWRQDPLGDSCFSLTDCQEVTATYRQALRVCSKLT
Chain of CAMK4 (human) (Q16566 whole entry, looked up): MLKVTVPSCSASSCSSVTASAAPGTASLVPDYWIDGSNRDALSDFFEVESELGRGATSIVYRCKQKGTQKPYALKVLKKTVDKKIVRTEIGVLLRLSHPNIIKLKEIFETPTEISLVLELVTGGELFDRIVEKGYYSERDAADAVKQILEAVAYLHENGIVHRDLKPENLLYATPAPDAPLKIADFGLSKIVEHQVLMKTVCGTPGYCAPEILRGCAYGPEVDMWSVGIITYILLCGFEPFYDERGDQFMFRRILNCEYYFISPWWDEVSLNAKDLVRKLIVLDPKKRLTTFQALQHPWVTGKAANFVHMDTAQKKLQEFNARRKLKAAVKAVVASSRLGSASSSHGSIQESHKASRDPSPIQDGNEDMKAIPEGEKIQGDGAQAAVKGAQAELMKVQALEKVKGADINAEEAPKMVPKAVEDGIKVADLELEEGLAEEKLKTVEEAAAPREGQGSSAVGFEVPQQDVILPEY
Chain of PDPK1 (human) (O15530 whole entry, looked up): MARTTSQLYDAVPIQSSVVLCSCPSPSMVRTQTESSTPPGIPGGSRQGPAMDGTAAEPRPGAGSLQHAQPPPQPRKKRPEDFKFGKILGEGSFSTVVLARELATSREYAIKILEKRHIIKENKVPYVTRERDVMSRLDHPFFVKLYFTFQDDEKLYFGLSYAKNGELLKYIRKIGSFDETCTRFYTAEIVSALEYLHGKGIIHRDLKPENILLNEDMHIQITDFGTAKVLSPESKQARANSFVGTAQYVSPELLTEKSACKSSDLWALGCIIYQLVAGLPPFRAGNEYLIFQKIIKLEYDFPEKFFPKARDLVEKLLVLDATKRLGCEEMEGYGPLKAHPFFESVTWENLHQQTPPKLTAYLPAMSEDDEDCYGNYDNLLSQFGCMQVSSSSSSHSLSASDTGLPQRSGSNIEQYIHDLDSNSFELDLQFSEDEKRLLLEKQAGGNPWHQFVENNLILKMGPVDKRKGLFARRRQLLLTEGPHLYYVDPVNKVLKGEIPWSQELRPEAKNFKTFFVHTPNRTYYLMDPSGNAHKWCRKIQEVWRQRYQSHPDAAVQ
Chain of MAP3K3 (human) (Q99759 whole entry, looked up): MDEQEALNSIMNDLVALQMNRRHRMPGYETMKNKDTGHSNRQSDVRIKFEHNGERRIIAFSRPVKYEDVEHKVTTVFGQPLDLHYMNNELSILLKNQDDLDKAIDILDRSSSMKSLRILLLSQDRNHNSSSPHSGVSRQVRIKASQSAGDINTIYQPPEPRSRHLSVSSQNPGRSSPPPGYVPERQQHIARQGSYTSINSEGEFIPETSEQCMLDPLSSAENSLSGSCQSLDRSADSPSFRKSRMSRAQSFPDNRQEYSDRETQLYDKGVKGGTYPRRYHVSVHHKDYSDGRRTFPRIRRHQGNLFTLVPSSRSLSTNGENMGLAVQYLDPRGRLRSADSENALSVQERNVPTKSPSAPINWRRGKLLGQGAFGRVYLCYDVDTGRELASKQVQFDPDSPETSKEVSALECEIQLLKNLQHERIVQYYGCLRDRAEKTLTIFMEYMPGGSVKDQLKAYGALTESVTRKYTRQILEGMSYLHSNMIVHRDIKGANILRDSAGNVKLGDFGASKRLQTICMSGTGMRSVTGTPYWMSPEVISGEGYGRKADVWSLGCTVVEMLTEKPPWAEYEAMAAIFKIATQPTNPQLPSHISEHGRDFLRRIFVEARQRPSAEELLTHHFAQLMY
Chain of PTK6 (human) (Q13882 whole entry, looked up): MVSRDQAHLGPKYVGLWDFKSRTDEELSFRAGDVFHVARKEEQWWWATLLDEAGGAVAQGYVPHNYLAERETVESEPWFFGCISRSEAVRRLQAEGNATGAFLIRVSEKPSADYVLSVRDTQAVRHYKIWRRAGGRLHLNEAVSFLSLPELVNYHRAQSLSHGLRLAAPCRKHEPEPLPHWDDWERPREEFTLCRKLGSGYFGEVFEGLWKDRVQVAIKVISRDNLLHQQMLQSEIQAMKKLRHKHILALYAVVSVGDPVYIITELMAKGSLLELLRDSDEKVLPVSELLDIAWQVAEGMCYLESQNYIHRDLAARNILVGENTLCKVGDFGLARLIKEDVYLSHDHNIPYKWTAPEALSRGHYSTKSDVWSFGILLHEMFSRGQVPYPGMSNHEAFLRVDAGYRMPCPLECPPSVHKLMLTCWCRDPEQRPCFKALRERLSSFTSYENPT

Row | SMILES | kinase still bound, per cent of control (DAPK3 (human)) [%] | kinase still bound, per cent of control (CIT (human)) [%] | kinase still bound, per cent of control (PLK3 (human)) [%] | kinase still bound, per cent of control (MYLK (human)) [%] | kinase still bound, per cent of control (TNK1 (human)) [%] | kinase still bound, per cent of control (TLK1 (human)) [%] | kinase still bound, per cent of control (CaMK1 (human)) [%] | kinase still bound, per cent of control (WEE2 (human)) [%] | kinase still bound, per cent of control (AURKC (human)) [%] | kinase still bound, per cent of control (CAMK1G (human)) [%] | kinase still bound, per cent of control (PDPK1 (human)) [%] | kinase still bound, per cent of control (TNIK (human)) [%] | kinase still bound, per cent of control (BRSK2 (human)) [%] | kinase still bound, per cent of control (CDK14 (human)) [%] | kinase still bound, per cent of control (PTK6 (human)) [%] | kinase still bound, per cent of control (NUAK2 (human)) [%] | kinase still bound, per cent of control (MELK (human)) [%] | kinase still bound, per cent of control (ANKK1 (human)) [%] | kinase still bound, per cent of control (NEK5 (human)) [%] | kinase still bound, per cent of control (CAMK4 (human)) [%] | further results
1 | CC[C@@H]1C(=O)N(C)c2cnc(Nc3ccc(C(=O)NC4CCN(C)CC4)cc3OC)nc2N1C1CCCC1 | 3.6 | 100 | 0 | 3.6 | 32 | 100 | 100 | 100 | 100 | 100 | 100 | 100 | 100 | 100 | 100 | 100 | 29 | 100 | 100 | 100 | kinase still bound, per cent of control (PTK2B (human)): 20%; kinase still bound, per cent of control [1]: 100%; kinase still bound, per cent of control (TSSK1B (human)): 100%; kinase still bound, per cent of control (MAP3K4 (human)): 100%; kinase still bound, per cent of control (EPHA7 (human)): 100%; kinase still bound, per cent of control [2]: 100%; kinase still bound, per cent of control (PKN1 (human)): 100%; kinase still bound, per cent of control (ABL2 (human)): 100%; kinase still bound, per cent of control (PIP4K2B (human)): 100%; kinase still bound, per cent of control (STK35 (human)): 100%; kinase still bound, per cent of control (RIOK1 (human)): 100%; kinase still bound, per cent of control (MAP3K3 (human)): 100%; kinase still bound, per cent of control (TNNI3K (human)): 100%; kinase still bound, per cent of control (PRKCD (human)): 100%; kinase still bound, per cent of control (CSNK1E (human)): 100%; kinase still bound, per cent of control (MAPK11 (human)): 100%
2 | CCOc1cc2ncc(C#N)c(Nc3ccc(OCc4ccccn4)c(Cl)c3)c2cc1NC(=O)/C=C/CN(C)C | 91 | 95 | 94 | 73 | 100 | 86 | 88 | 98 | 95 | 100 | 88 | 6 | 100 | 97 | 100 | 8.8 | 55 | 100 | 100 | 100 | kinase still bound, per cent of control (MAP4K5 (human)): 0.85%; kinase still bound, per cent of control (BLK (human)): 3%; kinase still bound, per cent of control (PTK2B (human)): 90%; kinase still bound, per cent of control [1]: 64%; kinase still bound, per cent of control (TSSK1B (human)): 100%; kinase still bound, per cent of control (MAP3K4 (human)): 4.8%; kinase still bound, per cent of control (NTRK1 (human)): 77%; kinase still bound, per cent of control (EPHA7 (human)): 97%; kinase still bound, per cent of control [2]: 1.4%; kinase still bound, per cent of control (PKN1 (human)): 100%; kinase still bound, per cent of control (ABL2 (human)): 92%; kinase still bound, per cent of control (PIP4K2B (human)): 95%; kinase still bound, per cent of control (RIOK1 (human)): 68%; kinase still bound, per cent of control (MAP3K3 (human)): 3.8%; kinase still bound, per cent of control (TNNI3K (human)): 100%; kinase still bound, per cent of control (PRKCD (human)): 100%; kinase still bound, per cent of control (CSNK1E (human)): 26%; kinase still bound, per cent of control (MAPK11 (human)): 100%
3 | O=C(O)c1ccc(Nc2ncc3c(n2)-c2ccc(Cl)cc2C(c2c(F)cccc2F)=NC3)cc1 | 70 | 37 | 18 | 95 | 16 | 77 | 78 | 89 | 20 | 79 | 35 | 61 | 100 | 100 | 77 | 85 | 81 | 100 | 46 | 66 | kinase still bound, per cent of control (MAP4K5 (human)): 96%; kinase still bound, per cent of control (BLK (human)): 0.7%; kinase still bound, per cent of control (CSNK1G3 (human)): 93%; kinase still bound, per cent of control (TSSK1B (human)): 90%; kinase still bound, per cent of control (MAP3K4 (human)): 36%; kinase still bound, per cent of control (NTRK1 (human)): 35%; kinase still bound, per cent of control (EPHA7 (human)): 8.8%; kinase still bound, per cent of control [2]: 79%; kinase still bound, per cent of control (PKN1 (human)): 83%; kinase still bound, per cent of control (ABL2 (human)): 30%; kinase still bound, per cent of control (PIP4K2B (human)): 100%; kinase still bound, per cent of control (RIOK1 (human)): 100%; kinase still bound, per cent of control (MAP3K3 (human)): 72%; kinase still bound, per cent of control (TNNI3K (human)): 85%; kinase still bound, per cent of control (PRKCD (human)): 100%; kinase still bound, per cent of control (CSNK1E (human)): 100%; kinase still bound, per cent of control (MAPK11 (human)): 99%
